The NIST ThermoML archive (doi:10.1016/j.fluid.2012.12.036)

Settings: Crystal; for vapor or sublimation pressure: Calculated from knudsen effusion weight loss; for Normal melting temperature: visual observation

c1ccc2cc3ccccc3cc2c1 [anthracene]
Settings | Normal melting temperature [°C] | vapor or sublimation pressure [kPa]
– | 216.90 | –
322.9 K | – | 1.82e-05
328 K | – | 2.97e-05
333 K | – | 5.58e-05
338.1 K | – | 8.91e-05
343.1 K | – | 0.000146
348.2 K | – | 0.000233

Brc1ccc2cc3ccccc3cc2c1 [anthracene, 2-bromo-]
Settings | Normal melting temperature [°C] | vapor or sublimation pressure [kPa]
– | 220.70 | –
334.8 K | – | 5.41e-06
339.8 K | – | 9.21e-06
344.9 K | – | 1.56e-05
350 K | – | 2.61e-05
355 K | – | 4.15e-05
360.1 K | – | 7.18e-05
365.2 K | – | 0.000114
370.4 K | – | 0.000184
375.3 K | – | 0.000287
380.4 K | – | 0.000437
385.4 K | – | 0.000652
390.4 K | – | 0.000887

Brc1c2ccccc2cc2ccccc12 [9-bromoanthracene]
Settings | Normal melting temperature [°C] | vapor or sublimation pressure [kPa]
– | 101.00 | –
314.8 K | – | 5.1e-06
319.8 K | – | 1.06e-05
324.8 K | – | 1.71e-05
329.8 K | – | 3.26e-05
334.9 K | – | 5.32e-05
339.9 K | – | 9.3e-05
345 K | – | 0.000158
350 K | – | 0.000261
355 K | – | 0.000418
